Where two headings read alike, the source gives them in different places.
Columns and labels:
BTK [1] = molecular target: T1, BTK (Mus musculus, UniProt P35991); experiment: In vivo degradation of BTK in mouse PD experiments with oral dosing; conditions: 24 h, flow cytometry
T1 construct: from tissue; host or cells: mouse blood B cells / splenocytes (CD-1 or BALB/c)
Procedure, shortened: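 CD-1 or BALB/c mice dosed by oral gavage, screens at 90 mg/kg for 6 h, later at lower doses/longer times. Blood or splenocyte BTK measured by intracellular flow cytometry (or HTRF); % degradation from B-cell minus T-cell BTK geometric MFI, relative to vehicle.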

BTK [2] = molecular target: BTK (Homo sapiens, UniProt Q06187); experiment: Cellular BTK degradation assay (Total BTK HTRF) in TMD8 cells; format: cell-based; set-up: endogenous in cells; host or cells: TMD8
Experimental: Cellular BTK Degradation Assay
In Vitro Cellular Screening to Determine Potency as Measured by DC50 Values after Four Hour Incubation
(§1) BTK levels were determined using Cisbio Total-BTK HTRF (Homologous Time-Resolved Fluorescence) kit (63ADK064PEG) according to the manufacturer's protocol. Briefly, cells were incubated in 1× supplied lysis buffer for 30 minutes. In an opaque white low volume 96-well plate (Cisbio, 66PL96005), cell lysate was combined with two different specific BTK antibodies, one conjugated with Eu^3+-Cryptate FRET donor and one conjugated with d2 FRET acceptor. Assay controls include wells containing cell lysate with only the Eu^3+-Cryptate FRET donor antibody and wells containing both HTRF antibodies and lysis buffer without cells or control lysate provided by Cisbio. HTRF ratio was calculated as (acceptor signal at 665 nm/donor signal at 620 nm)×10^4. Background HTRF levels were determined from the control well containing the donor, but no acceptor, antibody. Background HTRF levels were subtracted from all samples. Readouts were reported as HTRF levels relative to HTRF levels of DMSO-treated cells. Four-parameter non-linear regressions were performed in GraphPad Prism 7.02 to obtain DC50 values.
Cellular BTK degradation was measured as above for four hours in TMD8 cells for two diastereomers of compound 130. DC50 and EC50 values are the concentration at which the response is halfway between the top and bottom of the fitted non-linear regression curve.
The present example evaluates whether potency of BTK CTMs shifts with longer timepoints. DC50 values are typically calculated with a 4-hour timepoint.

TMD8 C481S cells [3] = experiment: Cell viability assay (CellTiter-Glo), TMD8 C481S cells; conditions: for EC50: Homo sapiens, TMD8, 72 h
Experimental: (§2) Cell viability was determined using CellTiter-Glo 2.0 Luminescent Cell Viability Assay (Promega, G9242), which quantitates the amount of ATP present as a proxy for the number of viable cells in culture. Cells were plated with densities between 2000-4000 cells per well in 96-well plates. […] CellTiter-Glo reagent was added to cells at a dilution of 1:20, and the plate was incubated ten minutes at room temperature prior to reading the luminescence signal using an EnVision plate reader. Controls included cells treated with DMSO and wells that contained no cells, only media. Background luminescence signal was determined by control wells containing no cells, only media, and was then subtracted from all sample wells. Luminescence values were then normalized to DMSO-treated wells and reported at proportion viable cells.

TMD8 cells [4] = experiment: Cell viability assay (CellTiter-Glo), TMD8 cells; conditions: for EC50: Homo sapiens, TMD8, 72 h
BTK C481S = BTK C481S (Homo sapiens, UniProt Q06187, C481S); experiment: BTK degradation (Total BTK HTRF) in TMD8 cells expressing BTK-C481S; format: cell-based; set-up: endogenous in cells; host or cells: TMD8 BTK-C481S (clone2C3), Cas9 RNP knock-in; conditions: TMD8 BTK-C481S (clone2C3) cells, treatment time 4 h
Experimental: as §1
BTK Degradation (Total BTK HTRF) at Four Hours in TMD8 Cells Expressing BTK-C481S
This example evaluates the potency of CTM in degrading […]. The BTK binding moieties utilized in CTMs bind to the BTK active site. This example evaluates whether the active site mutation C481S affects CTM-induced degradation of BTK.

TMD8 C481S cells [5] = conditions: human, 72 h
Experimental: as §2

TMD8 cells [6] = conditions: human, 72 h
[7] = oral dose 10 mg/kg, splenocytes

SMILES | % BTK Remaining (BTK [1]; oral dose 30 mg/kg, blood) [%] | DC50 (BTK [2]; treatment time 24 h) [nM] | EC50 (TMD8 C481S cells [3]) [nM] | EC50 (TMD8 cells [4]) [nM] | % BTK Remaining (BTK [1]; oral dose 3 mg/kg, blood) [%] | % BTK Remaining (BTK [1]; oral dose 3 mg/kg, splenocytes) [%] | % BTK Remaining (BTK [1]; oral dose 10 mg/kg, blood) [%] | % BTK Remaining (BTK [1]; [7]) [%] | DC50 (BTK [2]; treatment time 4 h) [nM] | further results
NC(=O)c1ncc(-c2nccs2)nc1Nc1ccc(C2CCN(C[C@@H]3CCN(c4ccc5c(c4)C(=O)N(C4CCC(=O)NC4=O)C5=O)C3)CC2)cc1 (some centres unmarked) [Compound 148] | 24 | 0.68 | 9.18 | 3.27 |  |  |  |  |  | EMAX (% viable cells) (TMD8 C481S cells [3]; TMD8 C481S cells, treatment time 72 h): 4%; EMAX (% viable cells) (TMD8 cells [4]; TMD8 cells, treatment time 72 h): 2%; DC50 (BTK C481S): 9.7 nM
NC(=O)c1ncc(-c2nccs2)nc1Nc1ccc(N2CCC3(CCN(Cc4ccc5c(c4)C(=O)N(C4CCC(=O)NC4=O)C5=O)CC3)CC2)cc1 (centres unmarked) [Compound 150] | 25 | 4.7 |  |  |  |  |  |  |  | 
CN1CCN([C@@H]2CCCN(c3cnc(C(N)=O)c(Nc4ccc(C5CCN(CC6CCN(c7ccc(C(=O)N[C@@H]8CCC(=O)NC8=O)nc7)CC6)CC5)cc4)n3)C2)C1=O [Compound 194] |  |  |  |  | 90 | 95 | 63 | 57 | 4.3 | 
CN1CCN([C@@H]2CCCN(c3cnc(C(N)=O)c(Nc4ccc(C5CCN(CC6CCN(c7ccc(C(=O)N[C@H]8CCC(=O)NC8=O)nc7)CC6)CC5)cc4)n3)C2)C1=O [Compound 195] |  |  |  |  | 40 | 39 | 25 | 23 | 0.26 | 
NC(=O)[C@H]1CCN(c2ncnc(N)c2F)C[C@@H]1N1CCC[C@@H](Nc2cc(Cl)cc(C(F)(F)F)c2)C1=O [Vecabrutinib] |  |  | 530 | 256 |  |  |  |  |  | EMAX (% viable cells) (TMD8 C481S cells [5]): 51%; EMAX (% viable cells) (TMD8 cells [6]): 38%

From US12600732B2, “Bifunctional compounds for degrading BTK via ubiquitin proteosome pathway” (NURIX THERAPEUTICS, INC., priority 2019, dated 2026)
